Experiments:
Assay in all cases: Ambit KinomeScan screening
Assay type in all cases: binding
Details in all cases: CAL-130 10 μM
PFTAIRE2 = target: T1, PFTAIRE2 (Homo sapiens, UniProt Q96Q40)
T1 construct: unspecified tag ('tagged kinases'); purchased Ambit (KinomeScan screening)
How it was run: (§1)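 In this 353-kinase competition screen, the compound (CAL-130, 10 μM) competed with an immobilized ligand for each tagged kinase. Percentages of control binding above 35% were treated as no hits.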

DCAMKL2 = target: T2, DCAMKL2 (Homo sapiens, UniProt Q8N568)
T2 construct: unspecified tag ("tagged kinases"); purchased Ambit (KinomeScan screening service)
How it was run: as §1

QSK = target: T3, QSK (Homo sapiens, UniProt Q9Y2K2)
T3 construct: tag (kind not specified); purchased Ambit (KinomeScan screening service)
How it was run: as §1

GRK1 = target: T4, GRK1 (Homo sapiens, UniProt Q15835)
T4 construct: unspecified tag ('tagged kinases'); purchased Ambit (KinomeScan screening service)
How it was run: as §1

TEC = target: T5, TEC (Homo sapiens, UniProt P42680)
T5 construct: unspecified tag (tagged kinase); purchased Ambit (KinomeScan screening)
How it was run: as §1

MLK1 = target: T6, MLK1 (Homo sapiens, UniProt P80192)
T6 construct: unspecified tag ('tagged kinases'); purchased Ambit (KinomeScan screening)
T6 sequence (P80192 whole entry): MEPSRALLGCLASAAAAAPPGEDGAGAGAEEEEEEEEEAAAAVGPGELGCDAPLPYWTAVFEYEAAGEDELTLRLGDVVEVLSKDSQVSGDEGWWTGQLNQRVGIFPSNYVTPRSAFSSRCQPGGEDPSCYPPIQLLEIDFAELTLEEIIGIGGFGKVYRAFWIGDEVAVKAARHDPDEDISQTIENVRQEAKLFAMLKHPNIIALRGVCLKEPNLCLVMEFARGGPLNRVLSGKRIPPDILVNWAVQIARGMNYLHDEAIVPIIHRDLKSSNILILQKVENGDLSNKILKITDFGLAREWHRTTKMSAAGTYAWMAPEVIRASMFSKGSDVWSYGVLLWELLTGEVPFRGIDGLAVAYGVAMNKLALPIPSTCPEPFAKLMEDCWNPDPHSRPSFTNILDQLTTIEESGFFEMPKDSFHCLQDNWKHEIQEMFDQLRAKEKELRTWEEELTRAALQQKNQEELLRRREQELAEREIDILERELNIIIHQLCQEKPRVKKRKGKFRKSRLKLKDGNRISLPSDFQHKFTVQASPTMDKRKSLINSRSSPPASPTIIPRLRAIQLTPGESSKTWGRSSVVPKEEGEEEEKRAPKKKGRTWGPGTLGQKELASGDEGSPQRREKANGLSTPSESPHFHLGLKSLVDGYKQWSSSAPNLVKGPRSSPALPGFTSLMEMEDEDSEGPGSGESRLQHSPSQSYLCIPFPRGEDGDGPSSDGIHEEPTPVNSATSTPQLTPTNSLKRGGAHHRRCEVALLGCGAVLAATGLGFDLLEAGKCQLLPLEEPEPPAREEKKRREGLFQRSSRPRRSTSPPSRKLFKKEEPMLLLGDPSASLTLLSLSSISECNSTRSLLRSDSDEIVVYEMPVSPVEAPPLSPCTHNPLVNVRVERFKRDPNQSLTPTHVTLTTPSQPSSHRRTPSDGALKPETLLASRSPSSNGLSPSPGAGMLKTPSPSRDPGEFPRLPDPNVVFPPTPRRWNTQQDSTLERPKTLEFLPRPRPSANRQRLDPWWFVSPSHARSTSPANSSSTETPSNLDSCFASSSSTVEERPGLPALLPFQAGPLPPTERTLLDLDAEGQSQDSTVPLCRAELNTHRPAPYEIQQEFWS
How it was run: as §1

SYK = target: T7, SYK (Homo sapiens, UniProt P43405)
T7 construct: tag (kind not specified); purchased Ambit (KinomeScan screening service)
How it was run: as §1

PIM3 = target: T8, PIM3 (Homo sapiens, UniProt Q86V86)
T8 construct: unspecified tag; purchased Ambit (KinomeScan screening panel)
How it was run: as §1

ASK2 = target: T9, ASK2 (Homo sapiens, UniProt O95382)
T9 construct: purchased Ambit (KinomeScan screening service)
How it was run: as §1

ACVR1 = target: T10, ACVR1 (Homo sapiens, UniProt Q04771)
T10 construct: unspecified tag ("tagged kinases"); purchased Ambit (KinomeScan screening)
How it was run: as §1

LKB1 = target: T11, LKB1 (Homo sapiens, UniProt Q15831)
T11 construct: unspecified tag ('tagged kinases'); purchased Ambit (KinomeScan screening service)
How it was run: as §1

CSNK2A1 = target: T12, CSNK2A1 (Homo sapiens, UniProt P68400)
T12 construct: purchased Ambit (KinomeScan screening service)
How it was run: as §1

JNK3 = target: T13, JNK3 (Homo sapiens, UniProt P53779)
T13 construct: purchased Ambit (KinomeScan screening)
How it was run: as §1

ERK5 = target: T14, ERK5 (Homo sapiens, UniProt Q13164)
T14 construct: unspecified tag ("tagged kinases"); purchased Ambit (KinomeScan screening service)
How it was run: as §1

MAP4K4 = target: T15, MAP4K4 (Homo sapiens, UniProt O95819)
T15 construct: Ambit (KinomeScan screening)
How it was run: as §1

MEK3 = target: T16, MEK3 (Homo sapiens, UniProt P46734)
T16 construct: purchased Ambit (KinomeScan screening)
T16 sequence (P46734 whole entry): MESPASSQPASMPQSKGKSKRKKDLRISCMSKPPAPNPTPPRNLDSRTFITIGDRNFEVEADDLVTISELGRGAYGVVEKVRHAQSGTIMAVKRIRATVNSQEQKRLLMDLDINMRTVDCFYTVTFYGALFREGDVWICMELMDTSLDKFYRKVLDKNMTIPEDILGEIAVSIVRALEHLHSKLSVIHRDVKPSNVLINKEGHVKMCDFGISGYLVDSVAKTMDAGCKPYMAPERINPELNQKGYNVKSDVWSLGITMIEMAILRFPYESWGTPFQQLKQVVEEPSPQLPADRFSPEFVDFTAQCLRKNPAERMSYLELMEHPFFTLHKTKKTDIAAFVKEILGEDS
How it was run: as §1

TXK = target: T17, TXK (Homo sapiens, UniProt P42681)
T17 construct: tag, kind not specified; purchased Ambit (KinomeScan screening service)
How it was run: as §1

ABL1(M351T) = target: T18, ABL1(M351T) (Homo sapiens, UniProt P00519, M351T)
T18 construct: unspecified tag ("tagged kinases"); purchased Ambit (KinomeScan screening)
How it was run: as §1

ICK = target: T19, ICK (Homo sapiens, UniProt Q9UPZ9)
T19 construct: Ambit (KinomeScan screening)
How it was run: as §1

DAPK1 = target: T20, DAPK1 (Homo sapiens, UniProt P53355)
T20 construct: purchased Ambit (KinomeScan screening service)
How it was run: as §1

TGFBR2 = target: T21, TGFBR2 (Homo sapiens, UniProt P37173)
T21 construct: unspecified tag (tagged kinase); purchased Ambit (KinomeScan screening)
T21 sequence (P37173 23-567): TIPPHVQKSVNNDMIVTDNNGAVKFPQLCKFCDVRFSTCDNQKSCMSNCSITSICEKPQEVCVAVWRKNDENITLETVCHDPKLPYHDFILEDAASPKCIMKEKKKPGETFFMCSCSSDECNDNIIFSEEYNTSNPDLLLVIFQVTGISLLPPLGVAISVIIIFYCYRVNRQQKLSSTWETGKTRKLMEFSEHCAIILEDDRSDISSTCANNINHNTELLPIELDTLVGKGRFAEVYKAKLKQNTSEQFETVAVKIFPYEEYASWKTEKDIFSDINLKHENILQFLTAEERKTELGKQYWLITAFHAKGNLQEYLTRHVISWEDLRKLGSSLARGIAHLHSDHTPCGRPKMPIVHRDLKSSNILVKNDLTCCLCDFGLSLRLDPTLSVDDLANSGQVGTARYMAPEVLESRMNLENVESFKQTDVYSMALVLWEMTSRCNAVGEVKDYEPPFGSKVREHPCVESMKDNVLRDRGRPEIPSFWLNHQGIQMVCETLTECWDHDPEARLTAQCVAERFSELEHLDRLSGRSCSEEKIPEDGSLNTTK
How it was run: as §1

EGFR(S752-I759DEL) = target: T22, EGFR(S752-I759DEL) (Homo sapiens, UniProt P00533, DEL752-759)
T22 construct: unspecified tag; purchased Ambit (KinomeScan screening service)
How it was run: as §1

SIK2 = target: T23, SIK2 (Homo sapiens, UniProt Q9H0K1)
T23 construct: tag, kind not specified; purchased Ambit (KinomeScan screening service)
How it was run: as §1

FGFR3 = target: T24, FGFR3 (Homo sapiens, UniProt P22607)
T24 construct: unspecified tag; purchased Ambit (KinomeScan screening service)
How it was run: as §1

FER = target: T25, FER (Homo sapiens, UniProt P16591)
T25 construct: unspecified tag ("tagged kinases"); purchased Ambit (KinomeScan screening service)
T25 sequence (P16591 whole entry): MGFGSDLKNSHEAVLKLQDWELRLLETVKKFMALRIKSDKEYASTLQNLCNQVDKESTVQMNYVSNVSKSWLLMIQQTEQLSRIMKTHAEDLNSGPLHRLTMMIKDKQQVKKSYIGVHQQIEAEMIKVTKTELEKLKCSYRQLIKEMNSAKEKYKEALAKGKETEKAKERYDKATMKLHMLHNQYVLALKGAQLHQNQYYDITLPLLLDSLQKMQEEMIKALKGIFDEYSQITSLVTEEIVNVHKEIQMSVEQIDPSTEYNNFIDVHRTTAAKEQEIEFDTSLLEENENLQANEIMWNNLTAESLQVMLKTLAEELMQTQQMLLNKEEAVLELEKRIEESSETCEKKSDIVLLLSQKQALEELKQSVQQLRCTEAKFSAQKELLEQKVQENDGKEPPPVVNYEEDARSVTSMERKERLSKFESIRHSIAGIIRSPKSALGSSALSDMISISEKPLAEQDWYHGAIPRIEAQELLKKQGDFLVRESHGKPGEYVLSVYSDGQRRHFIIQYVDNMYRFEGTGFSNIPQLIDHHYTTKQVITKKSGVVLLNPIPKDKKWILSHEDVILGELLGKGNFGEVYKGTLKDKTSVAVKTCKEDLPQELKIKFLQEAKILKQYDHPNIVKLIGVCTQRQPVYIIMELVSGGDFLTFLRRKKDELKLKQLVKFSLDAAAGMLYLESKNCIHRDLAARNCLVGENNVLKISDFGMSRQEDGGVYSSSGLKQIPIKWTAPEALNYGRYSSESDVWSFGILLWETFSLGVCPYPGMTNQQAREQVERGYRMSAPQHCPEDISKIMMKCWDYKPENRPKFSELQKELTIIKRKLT
How it was run: as §1

MARK4 = target: T26, MARK4 (Homo sapiens, UniProt Q96L34)
T26 construct: purchased Ambit (KinomeScan screening)
T26 sequence (Q96L34 whole entry): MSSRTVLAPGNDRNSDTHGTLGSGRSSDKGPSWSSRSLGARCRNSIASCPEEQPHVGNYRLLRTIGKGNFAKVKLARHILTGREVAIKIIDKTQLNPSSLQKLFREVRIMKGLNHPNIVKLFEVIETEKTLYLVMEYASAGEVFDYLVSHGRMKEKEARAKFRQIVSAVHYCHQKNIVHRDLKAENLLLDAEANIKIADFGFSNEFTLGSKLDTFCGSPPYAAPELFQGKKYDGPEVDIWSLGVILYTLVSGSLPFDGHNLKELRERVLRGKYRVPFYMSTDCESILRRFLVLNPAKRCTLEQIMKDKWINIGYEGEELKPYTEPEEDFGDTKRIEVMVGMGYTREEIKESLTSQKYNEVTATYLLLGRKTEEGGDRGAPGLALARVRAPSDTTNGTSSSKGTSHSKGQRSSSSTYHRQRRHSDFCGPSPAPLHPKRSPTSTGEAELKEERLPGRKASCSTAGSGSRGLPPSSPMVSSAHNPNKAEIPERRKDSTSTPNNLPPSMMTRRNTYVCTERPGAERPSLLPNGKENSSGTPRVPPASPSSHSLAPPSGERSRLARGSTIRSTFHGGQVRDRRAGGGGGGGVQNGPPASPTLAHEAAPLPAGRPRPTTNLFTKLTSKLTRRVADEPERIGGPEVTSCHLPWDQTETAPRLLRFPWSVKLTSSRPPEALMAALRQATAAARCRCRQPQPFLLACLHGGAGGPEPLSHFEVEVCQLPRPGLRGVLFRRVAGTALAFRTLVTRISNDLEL
How it was run: as §1

HIPK1 = target: T27, HIPK1 (Homo sapiens, UniProt Q86Z02)
T27 construct: unspecified tag ('tagged kinases'); purchased Ambit (KinomeScan screening service)
How it was run: as §1

BTK = target: T28, BTK (Homo sapiens, UniProt Q06187)
T28 construct: unspecified tag ("tagged kinases"); purchased Ambit (KinomeScan screening)
How it was run: as §1

CDK11 = target: T29, CDK11 (Homo sapiens, UniProt Q9BWU1)
T29 construct: purchased Ambit (KinomeScan screening)
How it was run: as §1

MET(Y1235D) = target: T30, MET(Y1235D) (Homo sapiens, UniProt P08581, Y1235D)
T30 construct: unspecified tag ('tagged kinases'); purchased Ambit (KinomeScan screening)
How it was run: as §1

CAMK4 = target: T31, CAMK4 (Homo sapiens, UniProt Q16566)
T31 construct: purchased Ambit (KinomeScan screening)
T31 sequence (Q16566 whole entry): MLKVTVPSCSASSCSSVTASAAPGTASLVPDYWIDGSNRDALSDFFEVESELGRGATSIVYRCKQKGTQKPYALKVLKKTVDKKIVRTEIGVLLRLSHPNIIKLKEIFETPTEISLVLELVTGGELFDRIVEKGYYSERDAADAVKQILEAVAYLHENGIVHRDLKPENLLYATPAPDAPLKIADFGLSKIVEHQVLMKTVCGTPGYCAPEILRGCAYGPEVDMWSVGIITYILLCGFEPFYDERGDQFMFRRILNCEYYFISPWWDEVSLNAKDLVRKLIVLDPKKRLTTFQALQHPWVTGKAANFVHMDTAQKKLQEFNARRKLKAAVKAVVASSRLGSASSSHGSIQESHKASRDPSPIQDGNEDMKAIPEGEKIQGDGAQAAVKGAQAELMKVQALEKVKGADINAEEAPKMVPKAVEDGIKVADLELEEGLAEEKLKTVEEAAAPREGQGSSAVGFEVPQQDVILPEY
How it was run: as §1

YANK2 = target: T32, YANK2 (Homo sapiens, UniProt Q9NY57)
T32 construct: purchased Ambit (KinomeScan screening service)
How it was run: as §1

MRCKB = target: T33, MRCKB (Homo sapiens, UniProt Q9Y5S2)
T33 construct: unspecified tag ('tagged kinases'); purchased Ambit (KinomeScan screening)
How it was run: as §1

ULK2 = target: T34, ULK2 (Homo sapiens, UniProt Q8IYT8)
T34 construct: tag, kind not specified; purchased Ambit (KinomeScan screening service)
How it was run: as §1

CLK1 = target: T35, CLK1 (Homo sapiens, UniProt P49759)
T35 construct: purchased Ambit (KinomeScan screening service)
How it was run: as §1

ABL1(F317I) = target: T36, ABL1(F317I) (Homo sapiens, UniProt P00519, F317I)
T36 construct: unspecified tag ("tagged kinases"); purchased Ambit (KinomeScan screening)
How it was run: as §1

Measured: Percent of Control Binding

T1 sequence (Q96Q40 whole entry): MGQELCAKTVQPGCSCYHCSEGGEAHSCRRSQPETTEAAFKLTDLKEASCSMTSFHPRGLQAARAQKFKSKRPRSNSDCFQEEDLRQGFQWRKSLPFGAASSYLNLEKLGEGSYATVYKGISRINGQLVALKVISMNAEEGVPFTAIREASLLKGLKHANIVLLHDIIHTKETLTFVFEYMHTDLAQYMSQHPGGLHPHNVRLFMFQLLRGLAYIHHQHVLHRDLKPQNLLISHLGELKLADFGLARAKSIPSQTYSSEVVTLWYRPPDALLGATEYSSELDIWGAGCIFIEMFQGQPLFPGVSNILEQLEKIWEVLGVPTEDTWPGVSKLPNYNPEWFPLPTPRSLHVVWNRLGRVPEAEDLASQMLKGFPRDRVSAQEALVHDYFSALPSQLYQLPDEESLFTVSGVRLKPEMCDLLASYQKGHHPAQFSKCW

Cc1ccccc1-n1c(C(C)Nc2nc(N)nc3nc[nH]c23)nc2cccc(C)c2c1=O (stereo not drawn) [CAL-130]
100%: PFTAIRE2 | DCAMKL2 | QSK | GRK1 | TEC | MLK1 | SYK | PIM3 | ASK2 | ACVR1 | LKB1 | CSNK2A1 | JNK3 | ERK5 | MAP4K4 | MEK3 | TXK | ABL1(M351T) | ICK | DAPK1 | TGFBR2 | EGFR(S752-I759DEL) | SIK2 | FGFR3 | FER | MARK4 | HIPK1 | BTK | CDK11 | MET(Y1235D) | CAMK4 | YANK2 | MRCKB | ULK2 | CLK1 | ABL1(F317I)
